Several values for one entry are separate records, joined by “and”; a condition that tells them apart may be missing. Equal values may be shown once. Read-outs that look alike come from different tables or passages of the source.

The values below come from patent US10349662B2, “Insecticidal compositions and methods of using the same” (priority 2011, dated 2019).

For this data set, the system named is Aedes aegypti mosquitoes. Briefly: Topical bioassay on adult female Aedes aegypti mosquitoes (knockdown 1 h, mortality 24 h; Colby calculation for combinations). The data set is classed as in vivo. The source says:
Components of a composition can have a synergistic or additive effect on insecticidal activity. Components have an additive effect when the effect of the combination is equal to the sum of the effects of each individual component. In contrast, components have a synergistic effect when the effect of the combination exceeds the sum of the effects of the components when applied individually. The effect (E) of a combination of two compounds may be calculated using the Colby formula (1) (S. R. Colby, “Calculating Synergistic and Antagonistic Responses of Herbicide Combinations”, Weeds 1967, 15, 20-22):
If the actual insecticidal kill rate is the calculated value (E), then the action of the combination is additive. If the actual insecticidal kill rate exceeds the calculated value (E), then the action of the combination is super-additive, that is, a synergistic effect is present. If the insecticidal kill rate is lower than the calculated value (E), then the action of the combination is considered antagonistic.
Adult female Aedes aegypti mosquitoes were segregated in 18″×18″ screen cages based on date of eclosion, therefore the exact age of the mosquitoes were known for bioassays.
Ten female mosquitoes, aged four to six days after eclosion, were aspirated out of their respective cage and into a small glass jar. The mosquitoes were then anesthetized with CO2 gas for 30 seconds. After the adults were anesthetized, they were quickly placed on a plastic platform for treatment application. Treatments were serially diluted (using a BrandTech Scientific Transferpette S pipette (100-1000 μL), labeled centrifuge tubes, and a vortex mixer) from stocks of insecticides using reagent grade acetone as the diluent to concentrations as indicated for each treatment solution. A treatment solution may contain additional ingredients as indicated for each study.
Using a Hamilton PB00-1 Repeating Dispenser with a Hamilton 25 Microliter Syringe, 0.5 μL of each treatment solution was applied to the thorax of each mosquito. Immediately following the application of the treatment, the mosquitoes were gently transferred into a clean paper cup and covered with screen. The mesh screen prevented the mosquitoes from escaping and allowed the specimens to be viewed for ratings. A cotton ball soaked with 10% sucrose solution was inserted into a side hole of each cup for hydration and nourishment. Each treatment variable in the study was replicated three times using separate cups for each replication.
The untreated controls treatments were anesthetized for 30 seconds and gently transferred to the paper cups. The acetone treated control was treated exactly as described above except that the solution applied to each mosquito was undiluted acetone.
The condition of the mosquitoes in each cup was recorded at one hour and 24 hours after initial treatment. The condition classifications used were (1) alive and flying, (2) alive and unable to fly, or (3) dead. The percent mortality for each treatment was calculated by summing the mortalities of each replicate then calculating the percent dead from the total number of mosquitoes.
Where indicated, the mortality data were subjected to probit analysis using the Statistical Analysis System Version 9.1 program PROC PROBIT (SAS Institute (2003) PROC user's manual, version 9.1. SAS Institute, Cary, N.C.).

The mark [1] stands for this setting: Aedes aegypti, topical, 24 h, read-out: % MORTALITY AFTER 24 HRS, active ingredient alone, 3%, adult, virgin, female Aedes aegypti.
[2] abbreviates: active ingredient alone, 3%, adult, virgin, female Aedes aegypti.
Where [3] appears, read: Aedes aegypti, topical, 24 h, read-out: % MORTALITY AFTER 24 HRS, single active, 3%.
[4] abbreviates: Aedes aegypti, topical, 24 h, read-out: % MORTALITY AFTER 24 HRS, 0.005 μg.
Where [5] appears, read: Aedes aegypti, topical, 24 h, read-out: % MORTALITY AFTER 24 HRS, insecticide alone, 0.0003 μg, adult, virgin, female Aedes aegypti.

Take `CC1=CCCCC1` [1-Methyl-1-cyclohexene, 1-methyl-1-cyclohexene]: the mortality at 3 % under setting [1] was 40%.

As to `CC(C)(C)C1=CCCCC1` [1-tert-Butyl . . .], the “% MORTALITY AFTER 24 HRS” value under setting [2] is reported as 30%.

As for `CC1=CC(=O)CC(C)C1` (stereo not drawn) [3,5-Dimethyl . . .], the “% MORTALITY AFTER 24 HRS” value under setting [2] is given as 63%.

Turning to `OCC1CC=CCC1` (stereo not drawn) [3-Cyclohexene-1-methanol, 3-cyclohexene-1-methanol], the mortality at 3 % under setting [3] was 57%.

For `CC1=CC(=O)CC(C)C1` (stereo not drawn) [3.5-Dimethyl . . .], under setting [2], the “% MORTALITY AFTER 24 HRS” value was 30%.

Take `CC1CC=CCC1` (stereo not drawn) [4-Methylcyclohexene]: under setting [1], the mortality at 3 % is 0%.

For `CC1(C)C2CC=C(C=O)C1C2` [(1R)-(−)-Myrtenal], the “% MORTALITY AFTER 24 HRS” value (2%) is reported as 10%.

In the case of `C=C(C)[C@@H]1CC=C(C)C(=O)C1` [(R)-(−)-Carvone], the “% MORTALITY AFTER 24 HRS” value reads like this: (3%) 7%; (single active, 3%) 13% and 10%.

Take `C=C(C)[C@H]1CC=C(C)C(=O)C1` [(S)-(+)-Carvone]: the “% MORTALITY AFTER 24 HRS” value (3%) is 13%; the “% MORTALITY AFTER 24 HRS” value (single active, 3%) was 7% and 17%.

For `C=C(C)[C@H]1CC=C(C)C(=O)C1` [(S)-(−)-Carvone], the “% MORTALITY AFTER 24 HRS” value (3%) is on record as 20%.

Take `C=C(C)[C@@H]1CC=C(C=O)CC1` [(S)-(−)-Perillaldehyde]: the 1 hour knockdown is 3% (1%), 93% (5%), 100% (10%) and 97% (20%). Besides, the “% MORTALITY AFTER 24 HRS” value reads like this: (1%) 7%; (2%) 30%; (5%) 93%; (10%) 100%; (20%) 100%.

Regarding `C=C(C)[C@@H]1CC=C(CO)CC1` [(S)-(−)-Perillyl alcohol], the “% MORTALITY AFTER 24 HRS” value (1%) was 0%; the “% MORTALITY AFTER 24 HRS” value (2%, listed as (S)-(−)-perillyl alcohol) is reported as 70%; the “% MORTALITY AFTER 24 HRS” value (2%, listed as (S)-Perillyl alcohol) is on record as 33%; the “% MORTALITY AFTER 24 HRS” value (single active, 2%) is 80% and 67%.

Turning to `CN/C(=N\[N+](=O)[O-])NCc1cnc(Cl)s1` [Clothianidin, clothianidin, reference compound], the mortality at 5 ng under setting [4] is 7%. The mortality at 10 ng was 50% (Aedes aegypti, topical, 24 h, read-out: % MORTALITY AFTER 24 HRS, 0.01 μg) and 47% (Aedes aegypti, topical, 24 h, read-out: % MORTALITY AFTER 24 HRS, single active, 0.01 μg). Moreover, the mortality at 25 ng (Aedes aegypti, topical, 24 h, read-out: % MORTALITY AFTER 24 HRS, 0.025 μg) was 40%. The mortality at 15 ng (Aedes aegypti, topical, 24 h, read-out: % MORTALITY AFTER 24 HRS, single active, 0.015 μg) is 0%. For the same compound, the mortality at 20 ng (Aedes aegypti, topical, 24 h, read-out: % MORTALITY AFTER 24 HRS, single active, 0.02 μg) is 43%.

Consider `CCOc1ccc(C(C)(C)COCc2cccc(Oc3ccccc3)c2)cc1` [Etofenprox, etofenprox, reference compound], for which the 1 hour knockdown is recorded as 73% (0.001 μg/mosquito) and 83% (0.002 μg/mosquito). In addition, the mortality at 0.0005 µg/mosquito (Aedes aegypti, topical, 24 h, read-out: % MORTALITY AFTER 24 HRS, 0.0005 μg/mosquito) was 97%. Further, for the setting “Aedes aegypti, topical, 24 h, read-out: % MORTALITY AFTER 24 HRS, 0.001 μg/mosquito”, the mortality at 0.001 µg/mosquito is 40%. In addition, under “Aedes aegypti, topical, 24 h, read-out: % MORTALITY AFTER 24 HRS, 0.002 μg/mosquito”, the mortality at 0.002 µg/mosquito was 53%. Also, under “Aedes aegypti, topical, 24 h, read-out: % MORTALITY AFTER 24 HRS, single active, 0.001 μg”, the mortality at 1 ng was 40%. Besides, the mortality at 2 ng (Aedes aegypti, topical, 24 h, read-out: % MORTALITY AFTER 24 HRS, single active, 0.002 μg) was 37%.

For the compound `C=CC(C)=CCC=C(C)CCC=C(C)C` [Farnesene], the 1 hour knockdown was 0% (1%); 3% and 0% and 7% (3%); 0% (5%); 87% (10%); 100% (20%). In addition, the “% MORTALITY AFTER 24 HRS” value is listed as 3% (1%); 3% (3%); 13% (5%); 70% (10%); 100% (20%); 7% (single active, 3%).

`O=[N+]([O-])NC1=NCCN1Cc1ccc(Cl)nc1` [Imidacloprid, imidacloprid, reference compound]: the mortality at 5 ng is, setting by setting: under setting [4], 60%; (Aedes aegypti, topical, 24 h, read-out: % MORTALITY AFTER 24 HRS, single active, 0.005 μg) 30%. Moreover, the mortality at 2.5 ng (Aedes aegypti, topical, 24 h, read-out: % MORTALITY AFTER 24 HRS, single active, 0.0025 μg) was 83%. The mortality at 3 ng (Aedes aegypti, topical, 24 h, read-out: % MORTALITY AFTER 24 HRS, single active, 0.003 μg) is 23%.

Consider `CC1=CC(=O)CC(C)(C)C1` [Isophorone, isophorone], for which, under setting [1], the mortality at 3 % was 57%.

Turning to `C=C(C)[C@H]1CC=C(C)CC1` [Limonene], the “% MORTALITY AFTER 24 HRS” value (5%) is reported as 27%.

In the case of `CC/C=C\C/C=C\C/C=C\CCCCCCCC(=O)O` [Linolenic acid], the 1 hour knockdown (1%) is given as 0%, the 1 hour knockdown (5%) is recorded as 27%, the 1 hour knockdown (10%) was 40% and the 1 hour knockdown (20%) is given as 93%. Besides, the mortality at 1 % (Aedes aegypti, topical, 24 h, read-out: % MORTALITY AFTER 24 HRS, 1%) is 3%. Also, the mortality at 5 % (Aedes aegypti, topical, 24 h, read-out: % MORTALITY AFTER 24 HRS, 5%) is 33%. The mortality at 10 % (Aedes aegypti, topical, 24 h, read-out: % MORTALITY AFTER 24 HRS, 10%) was 83%. The mortality at 20 % (Aedes aegypti, topical, 24 h, read-out: % MORTALITY AFTER 24 HRS, 20%) is 93%. Besides, the mortality at 3 % under setting [3] was 10%.

With `CC1(C)C(C=C(Cl)Cl)C1C(=O)OCc1cccc(Oc2ccccc2)c1` (stereo not drawn) [Permethrin, permethrin, reference compound], the 1 hour knockdown (0.0004 μg/mosquito) was 93%. Besides, the mortality at 300 pg was 27% (Aedes aegypti, topical, 24 h, read-out: % MORTALITY AFTER 24 HRS, 0.0003 μg) and 37% (Aedes aegypti, topical, 24 h, read-out: % MORTALITY AFTER 24 HRS, single active, 0.0003 μg). Moreover, the mortality at 0.0004 µg/mosquito (Aedes aegypti, topical, 24 h, read-out: % MORTALITY AFTER 24 HRS, 0.0004 μg/mosquito) is 70%. For the same compound, the mortality at 400 pg (Aedes aegypti, topical, 24 h, read-out: % MORTALITY AFTER 24 HRS, single active, 0.0004 μg) was 47%.

For the compound `C#CCC1=C(C)C(OC(=O)C2C(C=C(C)C)C2(C)C)CC1=O` (stereo not drawn) [Prallethrin, prallethrin, reference compound], the mortality at 750 pg is 37% (Aedes aegypti, topical, 24 h, read-out: % MORTALITY AFTER 24 HRS, 0.00075 μg) and 20% (Aedes aegypti, topical, 24 h, read-out: % MORTALITY AFTER 24 HRS, single active, 0.00075 μg). Moreover, the mortality at 300 pg under setting [5] is 7%. Also, the mortality at 400 pg (Aedes aegypti, topical, 24 h, read-out: % MORTALITY AFTER 24 HRS, insecticide alone, 0.0004 μg, adult, virgin, female Aedes aegypti) is 40%.

Turning to `CC(C)=CC1C(C(=O)OCc2cccc(Oc3ccccc3)c2)C1(C)C` (stereo not drawn) [Sumithrin, sumithrin (d-phenothrin), reference compound], the mortality at 700 pg is 27% (Aedes aegypti, topical, 24 h, read-out: % MORTALITY AFTER 24 HRS, 0.0007 μg); 43% (Aedes aegypti, topical, 24 h, read-out: % MORTALITY AFTER 24 HRS, insecticide alone, 0.0007 μg, adult, virgin, female Aedes aegypti); 27% (Aedes aegypti, topical, 24 h, read-out: % MORTALITY AFTER 24 HRS, single active, 0.0007 μg). Also, the mortality at 300 pg under setting [5] was 27%.

Regarding `CC1=CCC(=C(C)C)CC1` [Terpinolene, terpinolene], under setting [1], the mortality at 3 % was 20%.
